Measurements taken from ChEMBL document CHEMBL6078657, “Thiazolidinedione-based structure modification of ergosterol peroxide provides thiazolidinedione-conjugated derivatives as potent agents against breast cancer cells through a PI3K/AKT/mTOR pathway” (Bioorg Med Chem, 2025).
The source made the active and inactive calls. The calls are words filed in the database; no cut-off is given here.

What was measured:
MCF7 [1] = assay: Induction of apoptosis in human MCF7 cells assessed as viable cells at 1 uM measured after 48 hrs incubation by Annexin V-FITC/PI double staining assay (reference value: 92.8%); assay type: functional; conditions: read-out: Activity
HepG2 = assay: Antiproliferative activity against human HepG2 cells assessed as cell viability measured after 48 hrs incubation by MTT assay; assay type: functional, cell-based; conditions: HepG2, 48 h
MCF7 [2] = assay: Growth inhibition of human MCF7 cells assessed as ruptured membrane and shrunken nucleus at 1 to 6 uM incubated up to 48 hrs by acridine orange/ethidium bromide (AO/EB) staining based assay; assay type: functional, cell-based; conditions: dose 1-6 µM
MCF7 [3] = assay: Induction of apoptosis in human MCF7 cells assessed as viable cells at 6 uM measured after 48 hrs incubation by Annexin V-FITC/PI double staining assay (reference value: 92.8%); assay type: functional; conditions: read-out: Activity
MCF7 [4] = assay: Induction of apoptosis in human MCF7 cells assessed as early apoptotic cells at 6 uM measured after 48 hrs incubation by Annexin V-FITC/PI double staining assay (reference value: 5.73%); assay type: functional
MCF7 [5] = assay: Induction of apoptosis in human MCF7 cells assessed as late apoptotic cells at 6 uM measured after 48 hrs incubation by Annexin V-FITC/PI double staining assay (reference value: 0.68%); assay type: functional
MCF7 [6] = assay: Induction of apoptosis in human MCF7 cells assessed as late apoptotic cells at 1 uM measured after 48 hrs incubation by Annexin V-FITC/PI double staining assay (reference value: 0.68%); assay type: functional
MCF7 [7] = assay: Induction of apoptosis in human MCF7 cells assessed as necrotic cells at 1 uM measured after 48 hrs incubation by Annexin V-FITC/PI double staining assay (reference value: 0.77%); assay type: functional
MCF7 [8] = assay: Induction of apoptosis in human MCF7 cells assessed as viable cells at 3 uM measured after 48 hrs incubation by Annexin V-FITC/PI double staining assay (reference value: 92.8%); assay type: functional; conditions: read-out: Activity
MCF7 [9] = assay: Induction of apoptosis in human MCF7 cells assessed as early apoptotic cells at 3 uM measured after 48 hrs incubation by Annexin V-FITC/PI double staining assay (reference value: 5.73%); assay type: functional
MCF7 [10] = assay: Induction of apoptosis in human MCF7 cells assessed as late apoptotic cells at 3 uM measured after 48 hrs incubation by Annexin V-FITC/PI double staining assay (reference value: 0.68%); assay type: functional
MCF7 [11] = assay: Induction of apoptosis in human MCF7 cells assessed as necrotic cells at 3 uM measured after 48 hrs incubation by Annexin V-FITC/PI double staining assay (reference value: 0.77%); assay type: functional
MCF7 [12] = assay: Induction of apoptosis in human MCF7 cells assessed as increase in ROS production by measuring bright green fluorescence measured after 48 hrs incubation by DCFH-DA staining based flow cytometry assay; assay type: functional, cell-based; conditions: dose 1-6 µM
MCF7 [13] = assay: Induction of apoptosis in human MCF7 cells assessed as decrease in mitochondrial membrane potential by measuring increase in JC-1 monomer (green fluorescence) incubated for 48 hrs by JC-1 staining based flow cytometry analysis; assay type: functional, cell-based; conditions: dose 1-6 µM
MCF7 [14] = assay: Induction of apoptosis in human MCF7 cells assessed as decrease in mitochondrial membrane potential by measuring increase in JC-1 monomer (green fluorescence) at 1 uM incubated for 48 hrs by JC-1 staining based flow cytometry analysis (reference value: 2.96%); assay type: functional; design: scale not given: the % may be the effect or the level left
MCF7 [15] = assay: Induction of apoptosis in human MCF7 cells assessed as decrease in mitochondrial membrane potential by measuring increase in JC-1 monomer (green fluorescence) at 3 uM incubated for 48 hrs by JC-1 staining based flow cytometry analysis (reference value: 2.96%); assay type: functional; design: scale not given: the % may be the effect or the level left
MCF7 [16] = assay: Induction of cell cycle arrest in human MCF7 cells assessed as accumulation of cells at G0/G1 phase at 6 uM measured after 48 hrs by PI staining based flow cytometry analysis (reference value: 58.42%); assay type: functional
MCF7 [17] = assay: Induction of cell cycle arrest in human MCF7 cells assessed as accumulation of cells at S phase at 6 uM measured after 48 hrs by PI staining based flow cytometry analysis (reference value: 24.67%); assay type: functional
MCF7 [18] = assay: Induction of cell cycle arrest in human MCF7 cells assessed as accumulation of cells at G2/M phase at 6 uM measured after 48 hrs by PI staining based flow cytometry analysis (reference value: 16.91%); assay type: functional
MCF7 [19] = assay: Induction of cell cycle arrest in human MCF7 cells assessed as accumulation of cells at G0/G1 phase at 1 uM measured after 48 hrs by PI staining based flow cytometry analysis (reference value: 58.42%); assay type: functional
MCF7 [20] = assay: Induction of cell cycle arrest in human MCF7 cells assessed as accumulation of cells at S phase at 1 uM measured after 48 hrs by PI staining based flow cytometry analysis (reference value: 24.67%); assay type: functional
MCF7 [21] = assay: Induction of cell cycle arrest in human MCF7 cells assessed as accumulation of cells at G0/G1 phase at 3 uM measured after 48 hrs by PI staining based flow cytometry analysis (reference value: 58.42%); assay type: functional
MCF7 [22] = assay: Induction of cell cycle arrest in human MCF7 cells assessed as accumulation of cells at S phase at 3 uM measured after 48 hrs by PI staining based flow cytometry analysis (reference value: 24.67%); assay type: functional
MCF7 [23] = assay: Induction of cell cycle arrest in human MCF7 cells assessed as accumulation of cells at G2/M phase at 3 uM measured after 48 hrs by PI staining based flow cytometry analysis (reference value: 16.91%); assay type: functional
MCF7 [24] = assay: Inhibition of phosphorylation of PI3K in human MCF7 cells measured after 48 hrs by Western blot analysis; assay type: cell-based; conditions: dose 1-6 µM
MCF7 [25] = assay: Inhibition of phosphorylation of Akt in human MCF7 cells measured after 48 hrs by Western blot analysis; assay type: cell-based; conditions: dose 1-6 µM
[26] = target: Serine/threonine-protein kinase mTOR (Homo sapiens) (UniProt P42345); assay: Inhibition of phosphorylation of mTOR in human MCF7 cells measured after 48 hrs by Western blot analysis; assay type: cell-based; conditions: dose 1-6 µM
4T1 = assay: In vivo antitumor activity against mouse 4T1 cells transfected in BALB/c mouse assessed as tumor growth inhibition at 30 mg/kg, ip daily for 14 consecutive days relative to control; assay type: functional; conditions: 4T1, 336 h, time 14 day, read-out: TGI
[27] = Toxicity in healthy BALB/c mouse assessed as pathological changes in heart at 20 mg/kg, ip daily for 14 consecutive days by HE staining based assay; assay type: organism-based; conditions: in vivo, 336 h, time 14 day
[28] = Toxicity in healthy BALB/c mouse assessed as pathological changes in liver at 20 mg/kg, ip daily for 14 consecutive days by HE staining based assay; assay type: organism-based; conditions: in vivo, 336 h, time 14 day
[29] = Toxicity in healthy BALB/c mouse assessed as pathological changes in lungs at 20 mg/kg, ip daily for 14 consecutive days by HE staining based assay; assay type: organism-based; conditions: in vivo, 336 h, time 14 day
[30] = Toxicity in healthy BALB/c mouse assessed as pathological changes in kidneys at 20 mg/kg, ip daily for 14 consecutive days by HE staining based assay; assay type: organism-based; conditions: in vivo, 336 h, time 14 day
[31] = Toxicity in healthy BALB/c mouse assessed as pathological changes in liver at 40 mg/kg, ip daily for 14 consecutive days by HE staining based assay; assay type: organism-based; conditions: in vivo, 336 h, time 14 day
[32] = Toxicity in healthy BALB/c mouse assessed as pathological changes in spleen at 40 mg/kg, ip daily for 14 consecutive days by HE staining based assay; assay type: organism-based; conditions: in vivo, 336 h, time 14 day

## CC(C)[C@@H](C)/C=C/[C@@H](C)[C@H]1CC[C@@H]2[C@]1(C)CC[C@H]1[C@]23C=C[C@]2(C[C@@H](OC(=O)NCCNC(=O)CN4C(=O)S/C(=C\c5cccc6ccccc56)C4=O)CC[C@]12C)OO3
MCF7 [1]
  viability at 1 µM: 84.4%
HepG2
  IC50: 5.55 µM
MCF7 [2]
  growth inhibition (GI): Active
MCF7 [3]
  viability at 6 µM: 53%
MCF7 [4]
  Activity: 44.5%
MCF7 [5]
  Activity: 1.75%
MCF7 [6]
  Activity: 0.9%
MCF7 [7]
  Activity: 0.99%
MCF7 [8]
  viability at 3 µM: 75.7%
MCF7 [9]
  Activity: 22.8%
MCF7 [10]
  Activity: 0.77%
MCF7 [11]
  Activity: 0.77%
MCF7 [12]
  Activity: Active
MCF7 [13]
  Activity: Dose-dependent-effect
MCF7 [14]
  Activity: 12.9%
MCF7 [15]
  Activity: 26.2%
MCF7 [16]
  Activity: 89.86%
MCF7 [17]
  Activity: 2.87%
MCF7 [18]
  Activity: 7.27%
MCF7 [19]
  Activity: 66.09%
MCF7 [20]
  Activity: 14.93%
MCF7 [21]
  Activity: 80.77%
MCF7 [22]
  Activity: 8.41%
MCF7 [23]
  Activity: 10.83%
MCF7 [24]
  inhibition: Dose-dependent-effect
MCF7 [25]
  inhibition: Dose-dependent-effect
[26]
  inhibition: Dose-dependent-effect
4T1
  inhibition in vivo at 30 mg/kg: 86.2%
[27]
  Activity: Non-toxic
[28]
  Activity: Non-toxic
[29]
  Activity: Non-toxic
[30]
  Activity: Non-toxic
[31]
  Activity: Non-toxic
[32]
  Activity: Non-toxic
